A short description of assay [1]: Cytotoxicity against human HCT116 cells assessed as inhibition of cell growth by MTT assay. It is filed as functional, cell-based, HCT-116. As to conditions: for IC50: hct-116; for pIC50: Homo sapiens, HCT-116, read-out: IC50.
In the next assay the test system is A2780. Description: Cytotoxicity against human A2780 cells assessed as inhibition of cell growth by MTT assay. As to conditions: for IC50: a2780; for pIC50: Homo sapiens, A2780, read-out: IC50. Format: functional, cell-based. In general terms: Tetrazolium dyes change colour on reduction, which living cells bring about.
A further assay deals with HepG2. Description: Cytotoxicity against human HepG2 cells assessed as inhibition of cell growth by MTT assay. It is filed as functional, cell-based. To be noted: for IC50: hepg2; for pIC50: Homo sapiens, HepG2, read-out: IC50.
The target of assay [2] is CDK9/cyclin T1 (Homo sapiens) (UniProt O60563+P50750). Description: Inhibition of against CDK9/cyclinT1 (unknown origin) at 10 uM using Ulight-CFFKNIVTPRTPPPSQGK-amide substrate and ATP incubated for 90 mins by fluorescence based assay. Format: protein-complex assay.
Assay [3] in a line: Cytotoxicity against human BGC823 cells assessed as inhibition of cell growth by MTT assay. It is filed as functional, cell-based, BGC-823. As to conditions: for IC50: bgc-823; for pIC50: Homo sapiens, BGC-823, read-out: IC50.
Assay [4] can be described thus: Cytotoxicity against human […] cells assessed as inhibition of cell growth by MTT assay. It is filed as functional, cell-based. As to conditions: for pIC50: Homo sapiens, read-out: IC50.
Another assay has as its system BGC-823. Description: Cytotoxicity against human BGC823 cells assessed as inhibition of cell growth at 10 uM by MTT assay. It is filed as functional, cell-based.
A further assay addresses CDK9/cyclin T1 (Homo sapiens, UniProt P50750). Description: Inhibition of against CDK9/cyclinT1 (unknown origin) using Ulight-CFFKNIVTPRTPPPSQGK-amide substrate and ATP incubated for 90 mins by fluorescence based assay. It is filed as protein-complex assay.
Assay [5] addresses Cyclin-dependent kinase 2/cyclin E1 (Homo sapiens, UniProt P24941). Put plainly: Inhibition of against CDK2/cyclinE1 (unknown origin) using Ulight-CFFKNIVTPRTPPPSQGK-amide substrate and ATP incubated for 15 mins by fluorescence based assay. It is filed as protein-complex assay.
The species entered for the next assay is Homo sapiens. Description: Selectivity index, ratio of IC50 for CDK2/cyclinE1 (unknown origin) to IC50 for CDK9/cyclinT1 (unknown origin).

Data on 20 compounds can be found in ChEMBL document CHEMBL3421588, “Discovery of novel indirubin-3'-monoxime derivatives as potent inhibitors against CDK2 and CDK9” (Bioorg Med Chem Lett, 2015).

Molecules are shown by their SMILES. pIC50: −log10 of the molar value. Calls of active or inactive are those of the source. No cut-off for these calls is given here. A value given as a limit tells only on which side of the number the result lay.

Chain of CDK9/cyclin T1 (O60563 whole entry): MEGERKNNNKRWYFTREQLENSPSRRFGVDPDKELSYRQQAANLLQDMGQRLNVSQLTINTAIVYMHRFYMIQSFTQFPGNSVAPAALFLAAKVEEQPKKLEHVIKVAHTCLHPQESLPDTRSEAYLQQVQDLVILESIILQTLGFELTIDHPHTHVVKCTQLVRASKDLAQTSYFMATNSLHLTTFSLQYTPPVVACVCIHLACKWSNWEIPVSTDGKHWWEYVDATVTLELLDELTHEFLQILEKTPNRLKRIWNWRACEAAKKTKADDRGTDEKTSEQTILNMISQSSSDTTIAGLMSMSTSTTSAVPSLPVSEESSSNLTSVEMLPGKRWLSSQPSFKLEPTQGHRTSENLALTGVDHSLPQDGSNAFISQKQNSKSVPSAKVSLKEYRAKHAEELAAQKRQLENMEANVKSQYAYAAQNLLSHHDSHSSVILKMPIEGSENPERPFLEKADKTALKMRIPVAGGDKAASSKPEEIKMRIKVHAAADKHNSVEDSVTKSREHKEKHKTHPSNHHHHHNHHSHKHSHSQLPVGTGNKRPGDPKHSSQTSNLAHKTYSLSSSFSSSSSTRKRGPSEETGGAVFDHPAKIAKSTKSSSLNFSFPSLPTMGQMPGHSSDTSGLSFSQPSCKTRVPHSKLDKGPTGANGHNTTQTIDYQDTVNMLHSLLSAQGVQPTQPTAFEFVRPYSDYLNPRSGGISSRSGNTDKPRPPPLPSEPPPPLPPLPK
Chain of CDK9/cyclin T1 (P50750 whole entry): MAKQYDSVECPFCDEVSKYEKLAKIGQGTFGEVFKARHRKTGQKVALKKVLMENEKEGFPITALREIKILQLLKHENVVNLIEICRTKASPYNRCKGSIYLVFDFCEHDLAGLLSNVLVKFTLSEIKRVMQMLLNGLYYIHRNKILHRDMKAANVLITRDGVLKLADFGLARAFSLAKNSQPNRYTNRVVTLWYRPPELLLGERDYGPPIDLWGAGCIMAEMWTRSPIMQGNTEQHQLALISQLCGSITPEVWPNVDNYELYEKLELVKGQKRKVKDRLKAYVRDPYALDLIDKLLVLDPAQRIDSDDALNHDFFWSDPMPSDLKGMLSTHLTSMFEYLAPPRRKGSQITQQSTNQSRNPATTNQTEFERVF

Broadly, the inhibition is the percentage by which the read-out fell short of the control. For the compound `O=C1Nc2c(cccc2C(F)(F)F)/C1=C1/Nc2cc(F)c(F)cc2/C1=N\O`, the IC50 entry (in [1]; with A2780; in the assay with HepG2; in [3]; in [4]) was “Not Active” in each case. Besides, the inhibition in assay [2] is under 30%.
By pIC50 is commonly meant −log10 of the IC50, conventionally taken in molar units. With `CN1C(=O)/C(=C2\Nc3cc(F)c(F)cc3\C2=N/O)c2ccccc21`, the pIC50 is 5.65 in assay [1]; 5.39 with A2780; 5.60 in the assay on HepG2; 5.04 in assay [3]; 5.56 in [4]. Further, in assay [2], the inhibition came out at 52%.
With `O=C1Nc2ccc(F)cc2/C1=C1/Nc2ccc(OC(F)(F)F)cc2/C1=N\O`, the IC50 entry (in assay [1]; in the assay with A2780; in the assay on HepG2; in [3]; in assay [4]) was “Not Active” each time. This compound had an inhibition in assay [2] of under 30%.
On to `Nc1ccc2c(c1)/C(=C1/Nc3cc(F)c(F)cc3/C1=N\O)C(=O)N2`, for which the pIC50 in [1] was 5.24; in the assay with A2780 it was 5.65; in the assay on HepG2 it was 5.25; in assay [4] it was 5.60. The “growth inhibition (GI)” value in the assay on BGC-823 was “inactive”. Besides, the inhibition in assay [2] is 60%.
`COc1ccc2c(c1)/C(=C1/Nc3cc(F)c(F)cc3/C1=N\OCCO)C(=O)N2` came in with an inhibition in assay [2] of 84%. Besides, the pIC50 is 6.52 against CDK9/cyclin T1 and 6.40 in [5].
`O=C1Nc2c(Cl)cc(Cl)cc2/C1=C1/Nc2cc(F)c(F)cc2/C1=N\O`: the IC50 entry (in [1]; in the assay with A2780; in the assay on HepG2; in [3]; in [4]) was “Not Active” each time. In [2], the inhibition is under 30%.
For `O=C1Nc2c(Cl)cccc2/C1=C1/Nc2cc(F)c(F)cc2/C1=N\O`, the IC50 result (in [1]; in the assay on A2780; in the assay with HepG2; in assay [3]; in assay [4]) was “Not Active” in each case. Further, the inhibition in [2] was under 30%.
The compound `COc1ccc2c(c1)/C(=C1/Nc3cc(F)c(F)cc3/C1=N\O)C(=O)N2` showed an inhibition in assay [2] of 81%. Besides, the results for the pIC50 (against CDK9/cyclin T1; in assay [5]) were 5.72 and 5.96, respectively.
As to `O=C1Nc2ccc(Cl)cc2/C1=C1/Nc2cc(F)c(F)cc2/C1=N\O`, the Ratio IC50 in the assay filed under Homo sapiens was determined as 15. Further, the inhibition in assay [2] amounted to 86%. Further, the values for the pIC50 (against CDK9/cyclin T1; in [5]) were 6.40 and 5.19, respectively.
For `O=C1Nc2ccc(F)cc2/C1=C1/Nc2cc(F)c(F)cc2/C1=N\O`, the pIC50 is 6.03 in assay [1]; 5.63 in the assay on A2780; 5.57 in the assay on HepG2; 5.02 in [3]; 5.57 in assay [4]; 5.77 against CDK9/cyclin T1. The same compound had a pIC50 in assay [5] of 5.57. This compound also registered an inhibition in assay [2] of 85%.
Compound `O=C1Nc2ccc(OC(F)(F)F)cc2/C1=C1/Nc2cc(F)c(F)cc2/C1=N\O` registered an inhibition in [2] of 74%. The pIC50 was 5.25 against CDK9/cyclin T1 and 5.39 in [5].
In assay [2], `O=C1Nc2cc(Cl)ccc2/C1=C1/Nc2cc(F)c(F)cc2/C1=N\O` gave an inhibition of 59%.
As for `O=C1Nc2ccc([N+](=O)[O-])cc2/C1=C1/Nc2cc(F)c(F)cc2/C1=N\O`, the pIC50 was 5.67 in assay [1]; 5.65 in the assay on A2780; 5.61 in the assay on HepG2; 5.21 in [3]; 5.66 in [4]; 6.15 against CDK9/cyclin T1. In [5], this compound gave a pIC50 of 6.00. In assay [2], this compound came in with an inhibition of 89%.
With `CO/N=C1/C(=C2/C(=O)Nc3ccc(F)cc32)Nc2cc(F)c(F)cc21`, the IC50 entry (in assay [1]; in the assay on A2780; in the assay with HepG2; in assay [3]; in assay [4]) was “Not Active” each time. Also, the inhibition in [2] was under 30%.
For `O=Nc1c(-c2c(O)[nH]c3ccccc23)[nH]c2ccccc12` [INDIRUBIN-3-MONOXIME], in assay [2], the inhibition is 70%. Moreover, the pIC50 was 5.62 on CDK9/cyclin T1 and 6.15 in [5].
Take `CO/N=C1/C(=C2/C(=O)Nc3ccc([N+](=O)[O-])cc32)Nc2cc(F)c(F)cc21`: the IC50 result (in assay [1]; in the assay with A2780; in the assay with HepG2; in [3]; in assay [4]) was “Not Active” in each case. In [2], this compound had an inhibition of under 30%.
With `O=C1Nc2ccc([N+](=O)[O-])cc2/C1=C1/Nc2ccc(OC(F)(F)F)cc2/C1=N\O`, the IC50 entry (in [1]; with A2780; in the assay with HepG2; in assay [3]; in [4]) was “Not Active” throughout. The compound further showed an inhibition in [2] of under 30%.
As for `O=C1Nc2ccccc2/C1=C1/Nc2cc(F)c(F)cc2/C1=N\O`, the pIC50 in assay [1] was 5.63; in the assay with A2780, 5.60; in the assay with HepG2, 5.72; in assay [3], 5.19; in assay [4], 5.52. For the same compound, in assay [2], the inhibition turned out to be 67%.
`Cc1ccc2c(c1)/C(=C1/Nc3cc(F)c(F)cc3/C1=N\O)C(=O)N2` yielded an inhibition in assay [2] of 65%.
`COc1ccc2c(c1)/C(=C1/Nc3ccc(OC(F)(F)F)cc3/C1=N\O)C(=O)N2`: the IC50 entry (in assay [1]; with A2780; in the assay with HepG2; in assay [3]; in [4]) was “Not Active” in each case. For the same compound, the inhibition in [2] was under 30%.
